Reference: US9663460B2, “Sulfur derivatives as chemokine receptor modulators” (ALLERGAN, INC., priority 2010, dated 2017)

target: CCR2 (Homo sapiens (Human), UniProt P41597); assay: Calcium activity assayed on the FLIPR Tetra in HEK-Gqi5 cells stably expressing CCR2; assay type: cell-based; conditions: FLIPR Tetra calcium assay
Sequence (P41597 whole entry, species assumed): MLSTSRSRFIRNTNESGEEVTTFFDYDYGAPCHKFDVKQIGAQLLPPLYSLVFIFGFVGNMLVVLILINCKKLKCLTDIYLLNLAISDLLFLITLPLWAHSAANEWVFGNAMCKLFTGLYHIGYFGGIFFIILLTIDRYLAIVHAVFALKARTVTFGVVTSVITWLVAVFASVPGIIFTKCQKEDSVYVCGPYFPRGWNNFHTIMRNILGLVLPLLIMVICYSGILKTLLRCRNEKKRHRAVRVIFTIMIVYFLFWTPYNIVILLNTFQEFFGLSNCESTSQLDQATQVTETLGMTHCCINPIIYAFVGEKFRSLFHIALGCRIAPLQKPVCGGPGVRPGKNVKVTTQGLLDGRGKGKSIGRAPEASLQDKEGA

Compound	CCR2 % ANTAGONISM	IC50
Nc1cccc(C[S+]([O-])c2ccc(Cl)cc2NS(=O)(=O)c2cccc(Cl)c2)c1 (stereo not drawn) [N-{2-[(3-aminobenzypsulfinyl]-5-chlorophenyl}-3-chlorobenzenesulfonamide]	93%	159 nM
Nc1cccc(CS(=O)(=O)c2ccc(Cl)cc2NS(=O)(=O)c2cccc(Cl)c2)c1 [N-{2-[(3-aminobenzypsulfonyl]-5-chlorophenyl}-3-chlorobenzenesulfonamide]	91%	246 nM
NCCC[S+]([O-])c1ccc(Cl)cc1NS(=O)(=O)c1cc2ccccc2o1 (stereo not drawn) [N-{2-[(3-aminopropyl)sulfinyl]-5-chlorophenyl}-1-benzofuran-2-sulfonamide]	63%	–
NCCCS(=O)(=O)c1ccc(Cl)cc1NS(=O)(=O)c1cc2ccccc2o1 [N-{2-[(3-aminopropyl)sulfonyl]-5-chlorophenyl}-1-benzofuran-2-sulfonamide]	82%	–
O=[N+]([O-])c1cccc(C[S+]([O-])c2ccccc2NS(=O)(=O)c2cc3ccccc3o2)c1 (stereo not drawn) [N-{2-[(3-nitrobenzyl)sulfinyl]phenyl}-1-benzofuran-2-sulfonamide]	97%	653 nM
O=[N+]([O-])c1cccc(CS(=O)(=O)c2ccccc2NS(=O)(=O)c2cc3ccccc3o2)c1 [N-{2-[(3-nitrobenzyl)sulfonyl]phenyl}-1-benzofuran-2-sulfonamide]	83%	2130 nM
CC(=O)Nc1nc(CSc2ccc(Cl)cc2NS(=O)(=O)c2cc3ccccc3o2)cs1 [N-{4-[({2-[(1-benzofuran-2-ylsulfonyl)amino]-4-chlorophenyl}thio)methyl]-1,3-thiazol-2-yl}acetamide]	102%	848 nM
O=S(=O)(Nc1cc(Cl)ccc1[S+]([O-])Cc1ncc[nH]1)c1cc2ccccc2o1 (stereo not drawn) [N-{5-chloro-2-[(1H-imidazol-2-ylmethyl)sulfinyl]phenyl}-1-benzofuran-2-sulfonamide]	108%	1900 nM
O=S(=O)(Cc1ncc[nH]1)c1ccc(Cl)cc1NS(=O)(=O)c1cc2ccccc2o1 [N-{5-chloro-2-[(1H-imidazol-2-ylmethyl)sulfonyl]phenyl}-1-benzofuran-2-sulfonamide]	109%	1350 nM
O=S(=O)(Nc1cc(Cl)ccc1[S+]([O-])Cc1c[nH]cn1)c1cc2ccccc2o1 (stereo not drawn) [N-{5-chloro-2-[(1H-imidazol-4-ylmethyl)sulfinyl]phenyl}-1-benzofuran-2-sulfonamide]	108%	296 nM
O=S(=O)(Cc1c[nH]cn1)c1ccc(Cl)cc1NS(=O)(=O)c1cc2ccccc2o1 [N-{5-chloro-2-[(1H-imidazol-4-ylmethyl)sulfonyl]phenyl}-1-benzofuran-2-sulfonamide]	106%	81 nM
O=S(=O)(Nc1cc(Cl)ccc1[S+]([O-])Cc1cc[nH]n1)c1cc2ccccc2o1 (stereo not drawn) [N-{5-chloro-2-[(1H-pyrazol-3-ylmethyl)sulfinyl]phenyl}-1-benzofuran-2-sulfonamide]	99%	634 nM
O=S(=O)(Cc1cc[nH]n1)c1ccc(Cl)cc1NS(=O)(=O)c1cc2ccccc2o1 [N-{5-chloro-2-[(1H-pyrazol-3-ylmethyl)sulfonyl]phenyl}-1-benzofuran-2-sulfonamide]	102%	367 nM
O=[N+]([O-])c1ccccc1C[S+]([O-])c1ccc(Cl)cc1NS(=O)(=O)c1cc2ccccc2o1 (stereo not drawn) [N-{5-chloro-2-[(2-nitrobenzyl)sulfinyl]phenyl}-1-benzofuran-2-sulfonamide]	95%	75 nM
O=S(=O)(Nc1cc(Cl)ccc1[S+]([O-])CCc1ccccn1)c1cc2ccccc2o1 (stereo not drawn) [N-{5-chloro-2-[(2-pyridin-2-ylethyl)sulfinyl]phenyl}-1-benzofuran-2-sulfonamide]	86%	153 nM
O=S(=O)(CCc1ccccn1)c1ccc(Cl)cc1NS(=O)(=O)c1cc2ccccc2o1 [N-{5-chloro-2-[(2-pyridin-2-ylethyl)sulfonyl]phenyl}-1-benzofuran-2-sulfonamide]	93%	197 nM
O=[N+]([O-])c1ccc(CS(=O)(=O)c2ccc(Cl)cc2NS(=O)(=O)c2cc3ccccc3o2)cc1 [N-{5-chloro-2-[(4-nitrobenzyl)sulfonyl]phenyl}-1-benzofuran-2-sulfonamide]	20%	2160 nM
O=S(=O)(Nc1cc(Cl)ccc1[S+]([O-])Cc1ccccn1)c1cc2ccccc2o1 (stereo not drawn) [N-{5-chloro-2-[(pyridin-2-ylmethyl)sulfinyl]phenyl}-1-benzofuran-2-sulfonamide]	100%	29 nM

Other lines, results leading:

CCR2 % ANTAGONISM	IC50	Compound
64%	3240 nM	Nc1cccc(CSc2ccc(Cl)cc2NS(=O)(=O)c2ccc(F)cc2F)c1 [N-{2-[(3-aminobenzyl)thio]-5-chlorophenyl}-2,4-difluorobenzenesulfonamide]
95%	1460 nM	Nc1cccc(CSc2ccc(Cl)cc2NS(=O)(=O)c2cccc(Cl)c2)c1 [N-{2-[(3-aminobenzyl)thio]-5-chlorophenyl}-3-chlorobenzenesulfonamide]
88%	2820 nM	Nc1cccc(CSc2ccc(Cl)cc2NS(=O)(=O)c2ccc(Cl)cc2F)c1 [N-{2-[(3-aminobenzyl)thio]-5-chlorophenyl}-4-chloro-2-fluorobenzenesulfonamide]
95%	3890 nM	Nc1cccc(CSc2ccc(Cl)cc2NS(=O)(=O)c2ccc(Cl)cc2)c1 [N-{2-[(3-aminobenzyl)thio]-5-chlorophenyl}-4-chlorobenzenesulfonamide]
40%	3100 nM	Nc1cccc(CSc2ccc(Cl)cc2NS(=O)(=O)c2ccccc2)c1 [N-{2-[(3-aminobenzyl)thio]-5-chlorophenyl}benzenesulfonamide]
97%	55 nM	Nc1cccc(CSc2ccc(F)cc2NS(=O)(=O)c2cc3ccccc3o2)c1 [N-{2-[(3-aminobenzyl)thio]-5-fluorophenyl}-1-benzofuran-2-sulfonamide]
100%	1400 nM	COc1ccc(SCc2cccc(N)c2)c(NS(=O)(=O)c2cc3ccccc3o2)c1 [N-{2-[(3-aminobenzyl)thio]-5-methoxyphenyl}-1-benzofuran-2-sulfonamide]
105%	676 nM	Nc1cccc(CSc2ccccc2NS(=O)(=O)c2cc3ccccc3o2)c1 [N-{2-[(3-aminobenzyl)thio]phenyl}-1-benzofuran-2-sulfonamide]
96%	39 nM	Nc1cccc(C[S+]([O-])c2ccc(Cl)cc2NS(=O)(=O)c2cc3ccccc3o2)c1 (stereo not drawn) [N-{2-[(3-aminobenzypsulfinyl]-5-chlorophenyl}-1-benzofuran-2-sulfonamide]
90%	23 nM	Nc1cccc(CS(=O)(=O)c2ccc(Cl)cc2NS(=O)(=O)c2cc3ccccc3o2)c1 [N-{2-[(3-aminobenzypsulfonyl]-5-chlorophenyl}-1-benzofuran-2-sulfonamide]
92%	42 nM	Nc1cccc(CSc2ccc(Cl)cc2NS(=O)(=O)c2cc3ccccc3o2)c1 [N-{2-[(3-aminobenzypthio]-5-chlorophenyl}-1-benzofuran-2-sulfonamide]
102%	–	NCCCSc1ccc(Cl)cc1NS(=O)(=O)c1cc2ccccc2o1 [N-{2-[(3-aminopropyl)thio]-5-chlorophenyl}-1-benzofuran-2-sulfonamide]
104%	90 nM	Nc1ccc(CS(=O)(=O)c2ccc(Cl)cc2NS(=O)(=O)c2cc3ccccc3o2)cc1 [N-{2-[(4-aminobenzyl)sulfonyl]-5-chlorophenyl}-1-benzofuran-2-sulfonamide]
93%	60 nM	O=S(=O)(Nc1cc(Cl)ccc1SCc1ncc[nH]1)c1cc2ccccc2o1 [N-{5-chloro-2-[(1H-imidazol-2-ylmethyl)thio]phenyl}-1-benzofuran-2-sulfonamide]
100%	10 nM	O=S(=O)(Nc1cc(Cl)ccc1SCc1c[nH]cn1)c1cc2ccccc2o1 [N-{5-chloro-2-[(1H-imidazol-4-ylmethyl)thio]phenyl}-1-benzofuran-2-sulfonamide]
99%	16 nM	O=S(=O)(Nc1cc(Cl)ccc1SCc1cc[nH]n1)c1cc2ccccc2o1 [N-{5-chloro-2-[(1H-pyrazol-3-ylmethyl)thio]phenyl}-1-benzofuran-2-sulfonamide]
84%	713 nM	O=S(=O)(Nc1cc(Cl)ccc1SCCc1ccccn1)c1cc2ccccc2o1 [N-{5-chloro-2-[(2-pyridin-2-ylethyl)thio]phenyl}-1-benzofuran-2-sulfonamide]
103%	112 nM	O=S(=O)(Nc1cc(Cl)ccc1[S+]([O-])Cc1cccc(O)c1)c1cc2ccccc2o1 (stereo not drawn) [N-{5-chloro-2-[(3-hydroxybenzyl)sulfinyl]phenyl}-1-benzofuran-2-sulfonamide]
96%	56 nM	O=S(=O)(Cc1cccc(O)c1)c1ccc(Cl)cc1NS(=O)(=O)c1cc2ccccc2o1 [N-{5-chloro-2-[(3-hydroxybenzyl)sulfonyl]phenyl}-1-benzofuran-2-sulfonamide]
98%	77 nM	O=S(=O)(Nc1cc(Cl)ccc1SCc1cccc(O)c1)c1cc2ccccc2o1 [N-{5-chloro-2-[(3-hydroxybenzyl)thio]phenyl}-1-benzofuran-2-sulfonamide]
85%	651 nM	COc1cccc(CSc2ccc(Cl)cc2NS(=O)(=O)c2cc3ccccc3o2)c1 [N-{5-chloro-2-[(3-methoxybenzyl)thio]phenyl}-1-benzofuran-2-sulfonamide]
63%	–	O=[N+]([O-])c1cccc(CSc2ccc(Cl)cc2NS(=O)(=O)c2cc3ccccc3o2)c1 [N-{5-chloro-2-[(3-nitrobenzyl)thio]phenyl}-1-benzofuran-2-sulfonamide]
82%	147 nM	O=[N+]([O-])c1ccc(CSc2ccc(Cl)cc2NS(=O)(=O)c2cc3ccccc3o2)cc1 [N-{5-chloro-2-[(4-nitrobenzyl)thio]phenyl}-1-benzofuran-2-sulfonamide]
